# Experiments:
# [1] = test system: SARS-COV-2 virus, BetaCoV/France/IDF0371/2020; experiment: Anti-SARS-COV-2 activity in A549-ACE2 cells; format: cell-based; details: MOI=0.01, 24 hours, qRT-PCR; for infection of the A549-ACE2 cells by the SARS-COV-2 virus: 1.25 μM; for IC50: A549-ACE2 cells
# [2] = test system: SARS-COV-2 virus, BetaCoV/France/IDF0371/2020; experiment: Anti-SARS-COV-2 activity in VeroE6 cells; format: cell-based; details: MOI=0.01, 24 hours, qRT-PCR; for infection of the VeroE6 cells by the SARS-COV-2 virus: 1.25 μM; for IC50: Vero E6 cells
# Procedure: FIG. 7: Anti-SARS-COV-2 activity of compounds 1, 2, 3, 10 and 14 determined in the VeroE6 line. The cells were preincubated for 1 hour with compounds at a concentration of 1.25 μM, then infected with the viral strain BetaCoV/France/IDF0371/2020 (MOI=0.01). The cells were kept in culture for 24 hours in the presence of the compound. The residual viral replication is measured by quantification of the viral RNA in the cell culture by qRT-PCR. The control condition is obtained by incubation of cells in the presence of the dilution solvent DMSO (0). The values are averages of triplicates+standard deviation.
# (§1) The inhibitory activity of the compounds of the invention on the infection by SARS-COV-2 was evaluated in vitro by infection of three relevant lines for the study of this pathogen: the green monkey line VeroE6 (immortalized kidney epithelium, ATCC #CRL-1586), the A549-ACE2 line produced by transfection of the ACE2 receptor in the A549 line (pulmonary epithelial carcinoma; ATCC #CCL-185), commercial primary bronchial epithelium cells (Mucilair Epithelix).
# (§2) The infection tests are carried out by preincubating 4×10^4 VeroE6 or A549-ACE2 cells, cultivated in a 96-well plate, with the indicated concentrations of compounds for 1 hour. The cells are cultivated in a 5% CO2 atmosphere in a Dulbecco's modified Eagle's medium (DMEM) comprising 2% calf serum and 1% penicillin/streptomycin. The cells were then exposed to the SARS-COV-2 virus, BetaCoV/France/IDF0371/2020 (MOI=0.01) for 2 hours in the presence of the compounds before elimination of the innoculum, washing and culturing the cells in the presence of the compounds. 24 h after the viral challenge, the infection is quantified by amplification of the viral RNA by qRT-PCR using the Luna Universal One-Step RT-PCR kit. The values (DCT) are normalized by the GAPDH mRNA. The values represented are averages of triplicates+standard deviation. The control conditions were carried out by incubating the cells in the presence of DMSO, the solvent used for the solubilization of the compounds tested. The volumes of DMSO used under these conditions correspond to the volumes provided by the compounds under the test conditions.
# IC50 compounds 1, 2 and 3 were determined on the VeroE6 and A549-ACE2 cells using the software Graphpad Prism.
# RPS6KA1 (RSX1) = RPS6KA1 (RSX1) (Homo sapiens (Human), UniProt Q15418); experiment: Kinase panel Z'-LYTE/Adapta SelectScreen; format: biochemical; details: 100 nM in 1% DMSO
# Sequence of RPS6KA1 (RSX1) (Q15418 whole entry): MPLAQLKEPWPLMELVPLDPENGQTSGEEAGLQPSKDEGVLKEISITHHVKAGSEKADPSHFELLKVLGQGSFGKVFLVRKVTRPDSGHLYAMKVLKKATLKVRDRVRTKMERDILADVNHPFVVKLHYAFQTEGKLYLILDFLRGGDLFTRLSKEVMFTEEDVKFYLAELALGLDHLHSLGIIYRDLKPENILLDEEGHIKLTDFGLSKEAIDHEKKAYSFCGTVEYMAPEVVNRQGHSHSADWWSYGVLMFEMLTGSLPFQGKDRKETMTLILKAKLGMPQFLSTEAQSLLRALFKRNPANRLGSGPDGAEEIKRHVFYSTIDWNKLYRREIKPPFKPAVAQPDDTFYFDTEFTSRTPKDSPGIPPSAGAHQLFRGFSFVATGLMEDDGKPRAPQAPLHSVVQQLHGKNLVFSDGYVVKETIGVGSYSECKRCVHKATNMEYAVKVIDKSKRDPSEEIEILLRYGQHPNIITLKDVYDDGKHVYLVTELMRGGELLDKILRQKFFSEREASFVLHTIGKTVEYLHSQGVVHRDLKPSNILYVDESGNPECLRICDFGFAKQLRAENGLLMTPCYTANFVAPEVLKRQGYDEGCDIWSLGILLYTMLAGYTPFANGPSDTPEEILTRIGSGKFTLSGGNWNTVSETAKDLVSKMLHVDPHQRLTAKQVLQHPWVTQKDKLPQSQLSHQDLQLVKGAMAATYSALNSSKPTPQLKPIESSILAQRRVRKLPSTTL
# Procedure: (§3) The inhibitory activity of the compounds on a panel of kinases including, inter alia, AXL and FLT3 was evaluated by Thermo Fisher Scientific using Z′-LYTE® and Adapta® Select Screen technology.
# (§4) The fluorescence-based biochemical test uses coupled enzymes and is based on the difference in sensitivity of the phosphorylated and non-phosphorylated peptides to proteolytic cleavage. The peptide substrate is labeled with 2 fluorophores—one at each end—allowing fluorescence transfer (FRET).
# (§5) Compounds 1, 2 and 3 are tested in wells at the final concentration of 100 nM in 1% DMSO.
# IKBKB (IKK beta) = IKBKB (IKK beta) (Homo sapiens (Human), UniProt O14920); experiment: Kinase panel Z'-LYTE/Adapta SelectScreen; format: biochemical; details: 100 nM in 1% DMSO
# Sequence of IKBKB (IKK beta) (O14920 whole entry): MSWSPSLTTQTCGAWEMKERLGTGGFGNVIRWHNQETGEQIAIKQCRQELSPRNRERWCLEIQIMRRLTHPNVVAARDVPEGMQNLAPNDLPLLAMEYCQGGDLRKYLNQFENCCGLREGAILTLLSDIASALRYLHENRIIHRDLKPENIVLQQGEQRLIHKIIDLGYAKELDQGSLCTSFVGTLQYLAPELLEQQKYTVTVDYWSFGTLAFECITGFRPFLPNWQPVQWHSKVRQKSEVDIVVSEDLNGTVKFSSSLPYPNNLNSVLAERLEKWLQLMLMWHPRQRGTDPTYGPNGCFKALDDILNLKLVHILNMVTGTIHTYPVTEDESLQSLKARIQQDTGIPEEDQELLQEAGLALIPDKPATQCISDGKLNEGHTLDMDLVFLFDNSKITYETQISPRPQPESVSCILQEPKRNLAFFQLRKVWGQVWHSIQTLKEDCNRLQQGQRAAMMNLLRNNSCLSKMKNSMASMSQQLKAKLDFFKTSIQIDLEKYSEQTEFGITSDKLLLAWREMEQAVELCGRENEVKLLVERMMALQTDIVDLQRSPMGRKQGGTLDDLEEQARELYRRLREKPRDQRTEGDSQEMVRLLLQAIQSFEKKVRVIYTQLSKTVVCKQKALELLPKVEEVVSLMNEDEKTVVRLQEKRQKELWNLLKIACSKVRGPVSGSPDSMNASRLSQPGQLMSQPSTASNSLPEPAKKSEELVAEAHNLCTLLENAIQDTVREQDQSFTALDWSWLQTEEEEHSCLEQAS
# Procedure: as §3, §4, §5
# MAPK1 (ERK2) = MAPK1 (ERK2) (Homo sapiens (Human), UniProt P28482); experiment: Kinase panel Z'-LYTE/Adapta SelectScreen; format: biochemical; details: 100 nM in 1% DMSO
# Sequence of MAPK1 (ERK2) (P28482 whole entry): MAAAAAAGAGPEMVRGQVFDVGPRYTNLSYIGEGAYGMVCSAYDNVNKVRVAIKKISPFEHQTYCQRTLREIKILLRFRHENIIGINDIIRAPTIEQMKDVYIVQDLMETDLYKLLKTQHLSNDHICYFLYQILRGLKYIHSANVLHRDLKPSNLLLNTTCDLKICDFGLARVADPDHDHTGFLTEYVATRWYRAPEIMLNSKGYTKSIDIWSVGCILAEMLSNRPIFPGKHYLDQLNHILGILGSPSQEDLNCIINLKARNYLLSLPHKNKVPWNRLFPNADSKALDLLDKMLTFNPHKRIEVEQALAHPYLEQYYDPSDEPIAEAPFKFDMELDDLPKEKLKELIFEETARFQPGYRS
# Procedure: as §3, §4, §5
# FGFR1 = FGFR1 (Homo sapiens (Human), UniProt P11362); experiment: Kinase panel Z'-LYTE/Adapta SelectScreen; format: biochemical; details: 100 nM in 1% DMSO
# Sequence of FGFR1 (P11362 22-822): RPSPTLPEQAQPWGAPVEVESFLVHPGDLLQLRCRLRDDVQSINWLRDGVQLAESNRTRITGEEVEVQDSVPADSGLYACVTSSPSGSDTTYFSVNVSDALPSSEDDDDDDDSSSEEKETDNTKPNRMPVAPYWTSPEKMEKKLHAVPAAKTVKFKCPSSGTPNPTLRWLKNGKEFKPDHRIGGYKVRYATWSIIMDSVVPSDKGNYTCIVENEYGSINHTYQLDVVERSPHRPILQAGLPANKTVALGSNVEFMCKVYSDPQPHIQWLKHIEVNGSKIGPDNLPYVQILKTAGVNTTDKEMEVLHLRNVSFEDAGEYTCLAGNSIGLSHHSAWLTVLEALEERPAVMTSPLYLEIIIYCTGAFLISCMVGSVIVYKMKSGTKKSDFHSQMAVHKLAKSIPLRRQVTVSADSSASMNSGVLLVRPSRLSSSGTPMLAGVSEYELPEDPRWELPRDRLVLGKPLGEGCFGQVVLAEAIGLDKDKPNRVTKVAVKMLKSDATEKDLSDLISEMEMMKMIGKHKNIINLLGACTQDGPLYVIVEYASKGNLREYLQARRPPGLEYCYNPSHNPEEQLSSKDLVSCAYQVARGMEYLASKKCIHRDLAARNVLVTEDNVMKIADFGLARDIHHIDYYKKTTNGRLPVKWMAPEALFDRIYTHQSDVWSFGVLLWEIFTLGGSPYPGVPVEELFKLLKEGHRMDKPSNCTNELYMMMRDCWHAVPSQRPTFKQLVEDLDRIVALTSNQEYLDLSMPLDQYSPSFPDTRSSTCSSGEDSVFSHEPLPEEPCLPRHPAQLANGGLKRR
# Procedure: as §3, §4, §5
# SARS-COV-2 = experiment: Summary of activity on the SARS-COV-2 infectious models; format: cell-based; details: summary table
# Procedure: as §1, §2
# FLT3 = FLT3 (Homo sapiens (Human), UniProt P36888); experiment: IC50 determination on kinase FLT3 (SelectScreen); format: biochemical; details: 10 concentrations between 100 nM and 0.00495 nM
# Sequence of FLT3 (P36888 27-993): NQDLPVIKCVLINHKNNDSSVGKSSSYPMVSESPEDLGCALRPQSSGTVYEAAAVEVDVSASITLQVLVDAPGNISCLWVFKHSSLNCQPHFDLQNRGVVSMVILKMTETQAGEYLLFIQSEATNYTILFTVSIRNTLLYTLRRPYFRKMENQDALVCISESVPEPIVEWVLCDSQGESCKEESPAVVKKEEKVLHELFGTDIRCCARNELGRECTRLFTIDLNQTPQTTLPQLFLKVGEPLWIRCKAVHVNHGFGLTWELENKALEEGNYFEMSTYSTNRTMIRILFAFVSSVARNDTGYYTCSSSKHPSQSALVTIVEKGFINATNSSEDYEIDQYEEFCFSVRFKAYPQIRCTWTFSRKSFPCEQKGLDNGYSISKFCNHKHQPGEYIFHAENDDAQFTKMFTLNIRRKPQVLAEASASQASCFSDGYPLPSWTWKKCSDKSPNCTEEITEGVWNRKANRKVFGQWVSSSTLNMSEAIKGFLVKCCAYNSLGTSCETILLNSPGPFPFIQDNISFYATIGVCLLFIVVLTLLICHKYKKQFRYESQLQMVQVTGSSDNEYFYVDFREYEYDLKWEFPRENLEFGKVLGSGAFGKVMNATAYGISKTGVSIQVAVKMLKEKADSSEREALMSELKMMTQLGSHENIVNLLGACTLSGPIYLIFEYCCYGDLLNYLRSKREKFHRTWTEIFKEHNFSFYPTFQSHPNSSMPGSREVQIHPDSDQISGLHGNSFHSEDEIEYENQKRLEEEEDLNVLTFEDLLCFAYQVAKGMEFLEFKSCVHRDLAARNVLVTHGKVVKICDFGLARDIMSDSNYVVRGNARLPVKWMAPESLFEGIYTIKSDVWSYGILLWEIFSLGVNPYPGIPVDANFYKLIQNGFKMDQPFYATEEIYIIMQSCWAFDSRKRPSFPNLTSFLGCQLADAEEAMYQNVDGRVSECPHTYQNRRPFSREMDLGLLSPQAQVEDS
# Procedure: FIG. 2: Determination of the IC50 of compounds 1, 2 and 3 with respect to the inhibition of the kinase Axl and of the kinase FLT3. 10 concentrations of the compound were prepared by serial dilutions. The compounds are screened in DMSO at 1% final. The kinases were diluted in a concentrated concentration twice in kinase buffer. All the ATP solutions were diluted in a 4-fold concentrated working concentration (50 mM HEPES pH 7.5, 0.01% BRIJ-35, 10 mM MgCl2, 1 mM EGTA). Each compound was incubated at 10 concentrations between 100 nM and 0.00495 nM in order to calculate the IC50. The IC50 are indicated: a) results of compound 1; b) results of compound 2; c) results of compound 3.
# as §3, §4
# To calculate the IC50 inhibition of Axl and FLT3 by the compounds of the invention, 10 concentrations of each compound 1, 2 and 3 were prepared by 1/3 serial dilutions from the starting concentration. The Axl or FLT3 kinases were diluted at a two-fold concentration in kinase buffer. All the ATP solutions are diluted in a 4-fold working concentration (50 mM HEPES PH 7.5, 0.01% BRIJ-35, 10 mM MgCl2, 1 mM EGTA).
# Each compound is incubated at 10 concentrations between 100 nM and 0.00495 nM in order to calculate the IC50.
# Axl = Axl (Homo sapiens (Human), UniProt P30530); experiment: Inhibition of the phosphorylation of the kinase Axl in cellulo (immunoblot, Y779); format: cell-based; details: A549 cells, 2.5 μM compound 1 hour, 1 mM pervanadate 5 min
# Sequence of Axl (P30530 26-894): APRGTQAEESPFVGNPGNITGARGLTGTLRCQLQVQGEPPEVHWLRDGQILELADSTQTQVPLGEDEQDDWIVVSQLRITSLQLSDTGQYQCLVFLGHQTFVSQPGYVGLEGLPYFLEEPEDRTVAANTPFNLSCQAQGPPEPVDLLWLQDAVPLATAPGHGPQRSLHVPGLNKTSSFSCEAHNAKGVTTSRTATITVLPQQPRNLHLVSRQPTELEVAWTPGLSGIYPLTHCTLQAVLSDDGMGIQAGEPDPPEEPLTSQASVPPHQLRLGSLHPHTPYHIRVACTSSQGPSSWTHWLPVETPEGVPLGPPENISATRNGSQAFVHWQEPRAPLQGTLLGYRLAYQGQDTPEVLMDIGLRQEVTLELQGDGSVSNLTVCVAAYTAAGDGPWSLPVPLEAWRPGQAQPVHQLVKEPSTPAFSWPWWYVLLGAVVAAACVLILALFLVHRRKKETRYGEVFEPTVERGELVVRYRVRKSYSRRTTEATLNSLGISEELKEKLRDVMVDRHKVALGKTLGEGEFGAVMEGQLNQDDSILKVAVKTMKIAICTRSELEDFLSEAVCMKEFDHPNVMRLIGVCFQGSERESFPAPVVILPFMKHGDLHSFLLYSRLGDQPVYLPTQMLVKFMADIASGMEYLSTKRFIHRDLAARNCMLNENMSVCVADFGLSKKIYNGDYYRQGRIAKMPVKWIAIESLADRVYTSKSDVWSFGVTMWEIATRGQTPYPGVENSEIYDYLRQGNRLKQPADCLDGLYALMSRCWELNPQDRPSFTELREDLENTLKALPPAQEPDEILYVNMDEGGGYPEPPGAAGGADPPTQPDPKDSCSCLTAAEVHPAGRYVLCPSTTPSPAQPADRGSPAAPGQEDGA
# Procedure: FIG. 1: […] The A549 cells were preincubated for 1 hour with 2.5 μM of compounds targeting Axl. They were then stimulated for 5 min with 1 mM of pervanadate. The evaluation of the inhibition of the phosphorylation of the […] residue of the intracytoplasmic domain of Axl kinase is carried out by immunoblot using the antibody R&D Systems (AF2228) and measuring the intensity of the signals by densitometry (Image J) (P-Axl/Axl ratio). The A549 cells were preincubated for 1 hour with 2.5 μM of compound 1, 2, or 3. They were then stimulated for 5 min with 1 mM pervanadate, a compound known to activate the kinase Axl by phosphorylation. The inhibition of the phosphorylation of the […] residue of the intracytoplasmic domain of Axl is visualized by immunoblot using the antibody R&D Systems (AF2228).
SMILES,infection of the A549-ACE2 cells by the SARS-COV-2 virus [1],IC50 [1],infection of the VeroE6 cells by the SARS-COV-2 virus [2],IC50 [2],Percentage inhibition RPS6KA1 (RSX1) (RPS6KA1 (RSX1)),Percentage inhibition IKBKB (IKK beta) (IKBKB (IKK beta)),Percentage inhibition MAPK1 (ERK2) (MAPK1 (ERK2)),Percentage inhibition FGFR1 (FGFR1),active on infectious model SARS-COV-2 (SARS-COV-2),IC50 (FLT3),activation (phosphorylation) of the Y779 residue of AxL compared to the control (DMSO) (Axl)
CN1CCN(Cc2cccc(-c3cnc4[nH]cc(-c5cc(CNCCc6ccc(O)cc6)ccc5F)c4c3)c2)CC1 [Compound 1],prevent the infection,0.019 µM,prevent the infection,0.077 µM,38%,33%,11%,43%,ACTIVE,0.0025 µM,much lower or even zero activation
CN1CCN(Cc2cccc(-c3cnc4[nH]cc(-c5cc(CNCc6ccccc6)ccc5F)c4c3)c2)CC1 [Compound 2],prevent the infection,0.057 µM,prevent the infection,0.289 µM,16%,28%,6%,20%,ACTIVE,0.00233 µM,much lower or even zero activation
CN1CCN(Cc2cccc(-c3cnc4[nH]cc(-c5cc(NC(=O)Nc6ccccc6)ccc5F)c4c3)c2)CC1 [Compound 3],prevent the infection,0.038 µM,prevent the infection,–,41%,13%,6%,27%,ACTIVE,0.0482 µM,much lower or even zero activation
